US8802674B2, “Aminopyrimidine derivatives as LRRK2 modulators” (Genentech, Inc., priority 2011, dated 2014)
pKi: −log10 of the molar value.

biological target: LRRK2 (Homo sapiens (Human), UniProt Q5S007, G2019S); assay: In Vitro LRRK2 LabChip Assay; type: biochemical; conditions: Table 4
Outline: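 Potency (Ki in μM, IC50 or % inhibition) derived from capillary-electrophoresis separation of phospho- and unphosphorylated fluorescent peptide, with Ki fitted by a tight-binding model.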

LRRK2, sequence (Q5S007 970-2527 G2019S limits assumed): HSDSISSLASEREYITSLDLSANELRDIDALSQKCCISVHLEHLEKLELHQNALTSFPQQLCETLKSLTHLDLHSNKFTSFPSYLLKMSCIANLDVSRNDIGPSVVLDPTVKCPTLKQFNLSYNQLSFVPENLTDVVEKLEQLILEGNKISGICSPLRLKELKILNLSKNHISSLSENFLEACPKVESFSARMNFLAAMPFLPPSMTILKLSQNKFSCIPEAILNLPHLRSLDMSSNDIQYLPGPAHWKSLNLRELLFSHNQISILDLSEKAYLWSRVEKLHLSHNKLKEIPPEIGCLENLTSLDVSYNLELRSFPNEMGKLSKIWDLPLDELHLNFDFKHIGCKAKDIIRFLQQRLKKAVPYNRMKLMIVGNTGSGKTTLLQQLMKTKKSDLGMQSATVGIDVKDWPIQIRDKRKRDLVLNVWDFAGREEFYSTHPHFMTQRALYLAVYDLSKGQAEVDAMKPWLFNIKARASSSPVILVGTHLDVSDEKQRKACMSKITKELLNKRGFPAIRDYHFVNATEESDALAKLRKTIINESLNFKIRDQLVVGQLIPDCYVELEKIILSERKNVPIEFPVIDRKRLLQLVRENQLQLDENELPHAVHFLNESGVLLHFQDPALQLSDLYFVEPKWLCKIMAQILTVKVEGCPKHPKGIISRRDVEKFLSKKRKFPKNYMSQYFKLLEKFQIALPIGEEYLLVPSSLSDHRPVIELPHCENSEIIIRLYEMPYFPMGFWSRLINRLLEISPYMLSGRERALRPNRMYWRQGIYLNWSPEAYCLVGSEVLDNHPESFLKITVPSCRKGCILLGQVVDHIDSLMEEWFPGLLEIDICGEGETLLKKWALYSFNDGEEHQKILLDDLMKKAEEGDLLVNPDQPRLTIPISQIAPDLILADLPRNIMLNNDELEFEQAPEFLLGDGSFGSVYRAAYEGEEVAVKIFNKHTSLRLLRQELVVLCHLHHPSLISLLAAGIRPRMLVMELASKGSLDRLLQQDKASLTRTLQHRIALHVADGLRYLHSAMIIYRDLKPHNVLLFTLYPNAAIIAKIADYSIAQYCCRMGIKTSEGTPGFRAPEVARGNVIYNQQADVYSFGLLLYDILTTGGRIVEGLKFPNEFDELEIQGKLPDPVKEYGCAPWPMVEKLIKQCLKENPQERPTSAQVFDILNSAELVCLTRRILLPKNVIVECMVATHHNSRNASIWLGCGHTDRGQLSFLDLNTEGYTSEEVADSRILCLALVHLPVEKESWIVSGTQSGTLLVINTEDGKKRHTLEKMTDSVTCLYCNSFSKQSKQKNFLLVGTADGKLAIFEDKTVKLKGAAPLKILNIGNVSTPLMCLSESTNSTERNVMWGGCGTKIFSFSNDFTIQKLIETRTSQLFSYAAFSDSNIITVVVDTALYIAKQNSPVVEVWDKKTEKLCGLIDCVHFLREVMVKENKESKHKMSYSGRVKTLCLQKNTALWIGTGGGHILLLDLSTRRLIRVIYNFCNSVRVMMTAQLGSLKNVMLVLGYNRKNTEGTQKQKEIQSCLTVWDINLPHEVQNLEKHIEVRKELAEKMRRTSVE

Compared with CNc1nc(Nc2cc(F)c(C(=O)N3CCC(C#N)C3)cc2OC)ncc1C(F)(F)F (stereo not drawn) [Example 178, l-[2-Fluoro-5-methoxy-4-(4-methylamino-5-trifluoromethyl-pyrimidin-2-ylamino)-benzoyl]-pyrrolidine-3-carbonitrile], CNc1nc(Nc2cc(OC)c(C(=O)N(C)C)cc2Cl)ncc1C(F)(F)F [Example 158, 5-Chloro-2-methoxy-N,N-dimethyl-4-(4-methylamino-5-trifluoromethyl-pyrimidin-2-ylamino)-benzamide] is 0.57 log units lower in pKi: 8.74 for the first, 8.17 for the second. The first binds more tightly here.

CNc1nc(Nc2cc(OC)c(CC(=O)N3CCOCC3)cc2OC)ncc1Cl [Example 221, 2-[4-(5-Chloro-4-methylamino-pyrimidin-2-ylamino)-2,5-dimethoxy-phenyl] 1-morpholin-4-yl-ethanone] and COc1cc(C(=O)N2CCOCC2)ccc1Nc1ncc(Cl)c(NCC(C)OC)n1 (stereo not shown) [Example 230, {4-[5-Chloro-4-(2-methoxy-propylamino)-pyrimidin-2-ylamino]-3-methoxy-phenyl}-morpholin-4-yl-methanone] are within 0.2 log units of each other in pKi: 8.06 for the first, 8.02 for the second.

First: CCNc1nc(Nc2cc(OC)c(C(=O)NCCOC)cc2Cl)ncc1C(F)(F)F [Example 149, 5-Chloro-4-(4-ethylamino-5-trifluoromethyl-pyrimidin-2-ylamino)-2-methoxy-N-(2-methoxy-ethyl)-benzamide]
Second: CCNc1nc(Nc2cc(OC)c(C(=O)NC3CC3)cc2Cl)ncc1C(F)(F)F [Example 148, 5-Chloro-N-cyclopropyl-4-(4-ethylamino-5-trifluoromethyl-pyrimidin-2-ylamino)-2-methoxy-benzamide]
The pKi of the first is 0.43 log units lower: 8.03 for the first, 8.46 for the second. The second binds more tightly here.

CNc1nc(Nc2ccc(C(=O)N3CCN4CCCCC4C3)cc2OC)ncc1Cl (stereo not shown) [Example 8, [4-(5-Chloro-4-methylamino-pyrimidin-2-ylamino)-3-methoxy-phenyl]-(octahydro-pyrido[1,2-a]pyrazin-2-yl)-methanone] and CNc1nc(Nc2ccc(C(=O)N3CCCC3)cc2OC)ncc1Cl [Example 32, [4-(5-Chloro-4-methylamino-pyrimidin-2-ylamino)-3-methoxy-phenyl]-pyrrolidin-1-yl-methanone] are within 0.2 log units of each other in pKi: 8.46 for the first, 8.33 for the second.

Going from CNc1nc(Nc2cc(OC)c(C(=O)NCCCN)cc2Cl)ncc1Cl [Example 228, N-(3-Amino-propyl)-5-chloro-4-(5-chloro-4-methylamino-pyrimidin-2-ylamino)-2-methoxy-benzamide] to CNc1nc(Nc2ccc(C(=O)NCCCN)cc2OC)ncc1Cl [Example 65, N-(3-Amino-propyl)-4-(5-chloro-4-methylamino-pyrimidin-2-ylamino)-3-methoxy-benzamide], the pKi rises from 8.42 to 8.64 (0.22 log units).

CNc1nc(Nc2ccc(C(=O)N3CCOCC3)cc2OC(F)F)ncc1Cl [Example 7, [4-(5-Chloro-4-methylamino-pyrimidin-2-ylamino)-3-difluoromethoxy-phenyl]-morpholin-4-yl-methanone] and COc1cc(C(=O)N2CCOCC2)ccc1Nc1ncc(Cl)c(NCC(C)C)n1 [Example 67, [4-(5-Chloro-4-isobutylamino-pyrimidin-2-ylamino)-3-methoxy-phenyl]-morpholin-4-yl-methanone] are within 0.2 log units of each other in pKi: 8.31 for the first, 8.40 for the second.

Compared with COc1cc(C(=O)N2CCOCC2)ccc1Nc1ncc(Cl)c(NCC2CCOC2)n1 (stereo not shown) [Example 93, (4-{5-Chloro-4-[(tetrahydro-furan-3-ylmethyl)-amino]-pyrimidin-2-ylamino}-3-methoxy-phenyl)-morpholin-4-yl-methanone], CNc1nc(Nc2ccc(C(=O)N3CCOCC3CO)cc2OC)ncc1Cl (stereo not shown) [Example 40, [4-(5-Chloro-4-methylamino-pyrimidin-2-ylamino)-3-methoxy-phenyl]-(3-hydroxymethyl-morpholin-4-yl)-methanone] is 0.51 log units higher in pKi: 7.85 for the first, 8.36 for the second.

First: CNc1nc(Nc2ccc(C(=O)N3CCC(F)(F)CC3)cc2OC)ncc1Cl [Example 17, [4-(5-Chloro-4-methylamino-pyrimidin-2-ylamino)-3-methoxy-phenyl]-(4,4-difluoro-piperidin-1-yl)-methanone]
Second: CNc1nc(Nc2ccc(C(=O)N3CC4(COC4)C3)cc2OC)ncc1Cl [Example 190, [4-(5-Chloro-4-methylamino-pyrimidin-2-ylamino)-3-methoxy-phenyl]-(2-oxa-6-aza-spiro[3.3]hept-6-yl)-methanone]
The pKi of the first is 0.32 log units higher: 8.52 for the first, 8.20 for the second.

First: CCNc1nc(Nc2ccc(C(=O)N3C[C@@H]4C[C@H]3CO4)c(F)c2OC)ncc1C(F)(F)F [Example 242, (1S,4S)-2-oxa-5-azabicyclo[2.2.1] heptan-5-yl(4-(4-(ethylamino)-5-(trifluoromethyl)pyrimidin-2-ylamino)-2-fluoro-3-methoxyphenyl) methanone]
Second: COCCNc1nc(Nc2ccc(C(=O)N3CCOCC3)cc2OCC(F)(F)F)ncc1Cl [Example 109, [4-[5-Chloro-4-(2-methoxy-ethylamino)-pyrimidin-2-ylamino]-3-(2,2,2-trifluoro-ethoxy)-phenyl]-morpholin-4-yl-methanone]
The pKi of the first is 0.53 log units higher: 8.55 for the first, 8.02 for the second.

First: CNc1nc(Nc2ccc(C(=O)N3CCC3)cc2OC)ncc1C#N [Example 212, 2-[4-(Azetidine-1-carbonyl)-2-methoxy-phenylamino]-4-methylamino-pyrimidine-5-carbonitrile]
Second: CNc1nc(Nc2ccc(C(=O)NCC3CC3)cc2OC)ncc1C#N [Example 195, 4-(5-Cyano-4-methylamino-pyrimidin-2-ylamino)-N-cyclopropylmethyl-3-methoxy-benzamide]
The pKi of the first is 0.80 log units lower: 7.58 for the first, 8.38 for the second.

Going from CNc1nc(Nc2ccc(C(=O)N3CCC(OC)CC3)cc2OC)ncc1Br [Example 76, [4-(5-Bromo-4-methylamino-pyrimidin-2-ylamino)-3-methoxy-phenyl]-(4-methoxy-piperidin-1-yl)-methanone] to CNc1nc(Nc2cc(OC)c(C(=O)NC(C)(C)C)cc2Cl)ncc1Cl [Example 157, N-tert-Butyl-5-chloro-4-(5-chloro-4-methylamino-pyrimidin-2-ylamino)-2-methoxy-benzamide], the pKi falls from 8.62 to 7.55 (1.07 log units).

CNc1nc(Nc2cc(OC)c(C(=O)NC3(C#N)CC3)cc2Cl)ncc1Cl [Example 170, 5-Chloro-4-(5-chloro-4-methylamino-pyrimidin-2-ylamino)-N-(l-cyano-cyclopropyl)-2-methoxy-benzamide] showed a pKi of 7.86.

same assay, conditions: Table 5

First: COc1cc(C(=O)N2CCOCC2)ccc1Nc1ncc(Cl)c(OC2CCOCC2)n1 [Example 264, {4-[5-Chloro-4-(tetrahydro-pyran-4-yloxy)-pyrimidin-2-ylamino]-3-methoxy-phenyl}-morpholin-4-yl-methanone]
Second: CCNc1nc(Nc2ccc(C(=O)N3CCOCC3)cc2OC)ncc1C(F)(F)F [Example 257]
The pKi of the first is 1.22 log units lower: 7.48 for the first, 8.70 for the second.

In the case of CCNc1nc(Nc2cc(F)c(C(=O)N3CCOCC3)cc2OC)ncc1C(F)(F)F [Example 256, [4-(4-Ethylamino-5-trifluoromethyl-pyrimidin-2-ylamino)-2-fluoro-5-methoxy-phenyl]-morpholin-4-yl-methanone], the pKi was 8.70.

same assay, conditions: Table 6

COc1cc(C(=O)N2CCCC2)ccc1Nc1ncc(Cl)c(OC)n1 [Example 299, (4-(5-chloro-4-methoxypyrimidin-2-ylamino)-3-methoxyphenyl) (pyrrolidin-1-yl)methanone] and COc1cc(C(=O)N2CCOCC2)c(Cl)cc1Nc1ncc(Br)c(OC)n1 [Example 294, [4-(5-Bromo-4-methoxy-pyrimidin-2-ylamino)-2-chloro-5-methoxy-phenyl]-morpholin-4-yl-methanone] are within 0.2 log units of each other in pKi: 8.22 for the first, 8.03 for the second.

CNc1nc(Nc2ccc(C(=O)N(C)CCOC)cc2OC)ncc1C(F)(F)F [Example 301, 3-Methoxy-N-(2-methoxy-ethyl)-N-methyl-4-(4-methylamino-5-trifluoromethyl-pyrimidin-2-ylamino)-benzamide] and CCN(CCOC)C(=O)c1cc(OC)c(Nc2ncc(C(F)(F)F)c(NC)n2)cc1F [Example 308, N-Ethyl-2-fluoro-5-methoxy-N-(2-methoxy-ethyl)-4-(4-methylamino-5-trifluoromethyl-pyrimidin-2-ylamino)-benzamide] are within 0.2 log units of each other in pKi: 8.29 for the first, 8.46 for the second.

First: CNc1nc(Nc2ccc(C(=O)N3CCOCC3)cc2OC2CCC2)ncc1C(F)(F)F [Example 269, [3-Cyclobutoxy-4-(4-methylamino-5-trifluoromethyl-pyrimidin-2-ylamino)-phenyl]-morpholin-4-yl-methanone]
Second: CNc1nc(Nc2ccc(C(=O)N3CCOCC3)cc2OCC2CCC2)ncc1C(F)(F)F [Example 286, [3-Cyclobutyl-methoxy-4-(4-methylamino-5-trifluoromethyl-pyrimidin-2-ylamino)-phenyl]-morpholin-4-yl-methanone]
The pKi of the first is 0.32 log units higher: 8.60 for the first, 8.28 for the second.

Compared with CNc1nc(Nc2ccc(C(=O)N3CCN(CC(F)(F)F)CC3)cc2OC)ncc1C(F)(F)F [Example 279, [3-Methoxy-4-(4-methylamino-5-trifluoromethyl-pyrimidin-2-ylamino)-phenyl]-[4-(2,2,2-trifluoro-ethyl)-piperazin-1-yl]-methanone], CNc1nc(Nc2ccc(C(=O)N3CCOCC3)cc2C2CC2)ncc1C(F)(F)F [Example 289, [3-Cyclopropyl-4-(4-methylamino-5-trifluoromethyl-pyrimidin-2-ylamino)-phenyl]-morpholin-4-yl-methanone] is 1.00 log units lower in pKi: 8.70 for the first, 7.70 for the second.

In the case of CNc1nc(Nc2cc(OC)c(C(=O)N3CC(C)OC(C)C3)cc2Cl)ncc1C(F)(F)F (stereo not shown) [Example 267, [5-Chloro-2-methoxy-4-(4-methylamino-5-trifluoromethyl-pyrimidin-2-ylamino)-phenyl]-(2,6-dimethyl-morpholin-4-yl)-methanone], the pKi was 8.10.

same assay, conditions: Table 7

Going from COc1cc(C(=O)N2CCOCC2)ccc1Nc1ncc(C#N)c(OC)n1 [Example 315, 4-Methoxy-2-[2-methoxy-4-(morpholine-4-carbonyl)-phenylamino]-pyrimidine-5-carbonitrile] to CNc1nc(Nc2cc(F)c(C(=O)N3CCOCC3)cc2OC)ncc1C#N [Example 317, 2-[5-Fluoro-2-methoxy-4-(morpholine-4-carbonyl)-phenylamino]-4-methylamino-pyrimidine-5-carbonitrile], the pKi rises from 6.86 to 7.95 (1.09 log units).
